Laboratory results: US20240350494A1, “THERAPEUTIC MODULATION OF INTEGRINS” (Pliant Therapeutics, Inc., priority 2021, published 2024)
Entries after “also recorded” stand apart in the source; their conditions may differ.

Tested on: PRO-C3 and PRO-C6
Assay: Phase 2a trial in IPF, serum biomarkers of collagen synthesis
Format: in vivo, human
Conditions: IPF participants
From the text: FIG. 27 (PRO—C3 Type III collagen synthesis neoepitope) and FIG. 28 (PRO—C6 TypeVI collagen synthesis neoepitope) compare serum biomarkers of collagen synthesis in Compound 5 groups versus placebo groups. Compound 5 decreased serum biomarkers of collagen synthesis relative to placebo. […] LS=Least Squares, SEM=Standard Error of Mean.

How did the “change from baseline of serum PRO-C3 (type III collagen synthesis) vs. placebo” value (FIG. 27) turn out when COCCN(CCCCc1ccc2c(n1)NCCC2)CC[C@H](Nc1ncnc2ccccc12)C(=O)O [Compound 5, (S)-4-((2-methoxyethyl)(4-(5,6,7,8-tetrahydro-1,8-naphthyridin-2-yl)butyl)amino)-2-(quinazolin-4-ylamino)butanoic acid] was run?
The value was “decreased; also recorded: reduced in participants receiving Compound 5 vs. placebo (not significant)”.

And the “change from baseline of serum PRO-C6 (type VI collagen synthesis) vs. placebo” value (FIG. 28)?
The value was “decreased; also recorded: reduced in participants receiving Compound 5 vs. placebo (not significant)”.
